# Experimental data from PMC5980259, “GI‐530159, a novel, selective, mechanosensitive two‐pore‐domain potassium (K2P) channel opener, reduces rat dorsal root ganglion neuron excitability” (British Journal of Pharmacology, 2017).
# Several values for one entry are separate records, joined by “and”; a condition that tells them apart may be missing. Equal entries are not always repeated.
# Columns and labels:
# NaV1.7 = NaV1.7 (Homo sapiens, UniProt Q15858); experiment: Sodium channel selectivity, NaV1.7; type: cell-based; conditions: read-out: EC50 against NaV1.7
# Sequence of NaV1.7 (Q15858 whole entry): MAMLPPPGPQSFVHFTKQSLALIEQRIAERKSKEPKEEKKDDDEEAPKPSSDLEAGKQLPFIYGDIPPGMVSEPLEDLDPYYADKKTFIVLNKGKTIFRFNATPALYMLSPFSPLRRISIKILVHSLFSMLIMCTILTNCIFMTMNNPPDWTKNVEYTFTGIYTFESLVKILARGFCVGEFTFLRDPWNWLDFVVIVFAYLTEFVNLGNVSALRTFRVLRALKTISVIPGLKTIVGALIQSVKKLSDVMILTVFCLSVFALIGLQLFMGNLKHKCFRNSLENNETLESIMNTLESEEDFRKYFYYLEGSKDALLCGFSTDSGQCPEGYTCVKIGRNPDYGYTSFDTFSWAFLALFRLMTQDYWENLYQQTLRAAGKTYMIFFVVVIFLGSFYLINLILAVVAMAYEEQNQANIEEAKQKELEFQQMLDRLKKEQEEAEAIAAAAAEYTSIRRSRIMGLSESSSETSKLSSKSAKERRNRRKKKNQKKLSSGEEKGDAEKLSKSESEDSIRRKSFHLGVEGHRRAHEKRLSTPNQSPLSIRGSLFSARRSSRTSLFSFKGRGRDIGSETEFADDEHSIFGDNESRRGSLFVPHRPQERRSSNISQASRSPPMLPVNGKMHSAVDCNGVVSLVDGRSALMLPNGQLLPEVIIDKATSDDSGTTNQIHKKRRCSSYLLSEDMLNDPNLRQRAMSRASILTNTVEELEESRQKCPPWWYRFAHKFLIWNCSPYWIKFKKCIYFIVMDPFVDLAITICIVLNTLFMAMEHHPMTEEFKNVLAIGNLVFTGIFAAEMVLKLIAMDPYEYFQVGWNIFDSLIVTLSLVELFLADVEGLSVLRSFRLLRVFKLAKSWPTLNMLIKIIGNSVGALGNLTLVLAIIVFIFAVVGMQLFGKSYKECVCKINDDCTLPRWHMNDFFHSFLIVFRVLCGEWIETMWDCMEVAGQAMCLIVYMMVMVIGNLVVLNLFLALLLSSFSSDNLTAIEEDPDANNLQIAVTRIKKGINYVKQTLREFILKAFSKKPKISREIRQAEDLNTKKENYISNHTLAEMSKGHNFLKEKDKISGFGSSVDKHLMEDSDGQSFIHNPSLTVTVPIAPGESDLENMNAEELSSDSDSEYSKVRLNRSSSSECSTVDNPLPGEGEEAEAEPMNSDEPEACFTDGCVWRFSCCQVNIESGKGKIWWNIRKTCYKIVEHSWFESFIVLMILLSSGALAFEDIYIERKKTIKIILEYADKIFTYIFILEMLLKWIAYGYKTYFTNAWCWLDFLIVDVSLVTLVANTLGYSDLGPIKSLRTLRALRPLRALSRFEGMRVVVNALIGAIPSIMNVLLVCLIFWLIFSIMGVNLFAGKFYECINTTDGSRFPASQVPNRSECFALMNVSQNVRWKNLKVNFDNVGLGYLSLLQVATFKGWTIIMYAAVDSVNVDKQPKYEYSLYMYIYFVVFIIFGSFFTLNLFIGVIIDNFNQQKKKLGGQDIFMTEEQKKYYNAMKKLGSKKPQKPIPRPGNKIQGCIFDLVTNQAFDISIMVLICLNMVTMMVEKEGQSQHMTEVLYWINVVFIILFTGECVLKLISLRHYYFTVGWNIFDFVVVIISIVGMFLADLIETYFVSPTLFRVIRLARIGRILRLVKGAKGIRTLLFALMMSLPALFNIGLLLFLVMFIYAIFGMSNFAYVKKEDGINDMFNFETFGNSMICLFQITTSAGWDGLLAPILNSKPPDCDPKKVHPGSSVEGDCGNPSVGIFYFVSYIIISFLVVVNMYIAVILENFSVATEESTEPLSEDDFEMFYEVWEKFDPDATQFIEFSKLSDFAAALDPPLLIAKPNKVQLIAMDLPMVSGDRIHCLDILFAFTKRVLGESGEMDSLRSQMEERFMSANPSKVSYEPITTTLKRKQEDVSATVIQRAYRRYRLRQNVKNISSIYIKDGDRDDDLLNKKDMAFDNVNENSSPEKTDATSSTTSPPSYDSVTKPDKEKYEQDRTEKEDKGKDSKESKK
# TASK2 (K2P5.1) = TASK2 (K2P5.1) (Homo sapiens, UniProt O95279); experiment: Rb+ efflux assay, TASK2; type: cell-based
# Sequence of TASK2 (K2P5.1) (O95279 whole entry, species assumed): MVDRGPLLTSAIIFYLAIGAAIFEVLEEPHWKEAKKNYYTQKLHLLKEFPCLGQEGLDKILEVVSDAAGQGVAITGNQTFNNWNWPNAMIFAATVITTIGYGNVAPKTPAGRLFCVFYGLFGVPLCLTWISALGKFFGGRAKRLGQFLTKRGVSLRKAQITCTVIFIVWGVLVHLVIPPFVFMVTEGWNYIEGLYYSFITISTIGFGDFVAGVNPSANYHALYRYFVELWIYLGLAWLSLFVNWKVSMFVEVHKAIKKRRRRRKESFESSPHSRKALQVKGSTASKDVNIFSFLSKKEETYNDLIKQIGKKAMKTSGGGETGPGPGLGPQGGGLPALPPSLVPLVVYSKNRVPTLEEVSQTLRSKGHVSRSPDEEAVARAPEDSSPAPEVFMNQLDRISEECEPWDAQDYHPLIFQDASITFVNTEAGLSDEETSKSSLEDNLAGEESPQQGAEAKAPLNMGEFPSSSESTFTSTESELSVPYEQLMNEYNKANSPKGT
# hTREK1 = target: T1, hTREK1 (Homo sapiens, UniProt O95069); experiment: Manual whole-cell patch clamp, HEK293 cells stably expressing TREK1; type: cell-based; parameters: expressed in transfected cells
# T1 sequence (O95069 1-426): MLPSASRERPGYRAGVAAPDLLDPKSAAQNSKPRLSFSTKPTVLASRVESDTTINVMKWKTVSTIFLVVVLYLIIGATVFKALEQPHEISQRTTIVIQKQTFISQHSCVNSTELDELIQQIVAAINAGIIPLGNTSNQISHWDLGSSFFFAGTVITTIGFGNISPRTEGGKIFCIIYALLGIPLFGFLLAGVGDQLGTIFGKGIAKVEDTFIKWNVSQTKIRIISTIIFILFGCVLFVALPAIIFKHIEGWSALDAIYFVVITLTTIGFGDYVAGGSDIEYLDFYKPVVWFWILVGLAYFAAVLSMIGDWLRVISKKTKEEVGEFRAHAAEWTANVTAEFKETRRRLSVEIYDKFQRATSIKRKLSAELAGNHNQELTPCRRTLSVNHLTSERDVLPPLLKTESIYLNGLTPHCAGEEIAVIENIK
# Method: Electrophysiological studies were performed on CHO or HEK293 cells, stably expressing human recombinant TREK1; tsA‐201 cells transiently transfected with human recombinant K2P channels and acutely dissociated rat DRG cells, all at room temperature (22–24°C).
# Studies were performed using a conventional patch clamp and Multiclamp 700B and pCLAMP software (Molecular Devices, Sunnyvale, CA, USA). For conventional manual patch clamp, glass coverslips containing HEK293 cells were perfused with an extracellular solution (ECS) containing (in mM): 135 NaCl, 4.7 KCl, 1 CaCl2, 1 MgCl2, 10 HEPES and 10 glucose, pH 7.4, with NaOH (310 mOsmol·L^−1). The patch pipette was filled with (in mM): 130 KCl, 1 MgCl2, 5 MgATP, 10 HEPES and 10 BAPTA, pH adjusted to 7.3 with KOH (290 mOsmol·L^−1).
# NaV1.8 = NaV1.8 (Homo sapiens, UniProt Q9Y5Y9); experiment: Sodium channel selectivity, NaV1.8; type: cell-based; conditions: read-out: EC50 against NaV1.8
# Sequence of NaV1.8 (Q9Y5Y9 whole entry): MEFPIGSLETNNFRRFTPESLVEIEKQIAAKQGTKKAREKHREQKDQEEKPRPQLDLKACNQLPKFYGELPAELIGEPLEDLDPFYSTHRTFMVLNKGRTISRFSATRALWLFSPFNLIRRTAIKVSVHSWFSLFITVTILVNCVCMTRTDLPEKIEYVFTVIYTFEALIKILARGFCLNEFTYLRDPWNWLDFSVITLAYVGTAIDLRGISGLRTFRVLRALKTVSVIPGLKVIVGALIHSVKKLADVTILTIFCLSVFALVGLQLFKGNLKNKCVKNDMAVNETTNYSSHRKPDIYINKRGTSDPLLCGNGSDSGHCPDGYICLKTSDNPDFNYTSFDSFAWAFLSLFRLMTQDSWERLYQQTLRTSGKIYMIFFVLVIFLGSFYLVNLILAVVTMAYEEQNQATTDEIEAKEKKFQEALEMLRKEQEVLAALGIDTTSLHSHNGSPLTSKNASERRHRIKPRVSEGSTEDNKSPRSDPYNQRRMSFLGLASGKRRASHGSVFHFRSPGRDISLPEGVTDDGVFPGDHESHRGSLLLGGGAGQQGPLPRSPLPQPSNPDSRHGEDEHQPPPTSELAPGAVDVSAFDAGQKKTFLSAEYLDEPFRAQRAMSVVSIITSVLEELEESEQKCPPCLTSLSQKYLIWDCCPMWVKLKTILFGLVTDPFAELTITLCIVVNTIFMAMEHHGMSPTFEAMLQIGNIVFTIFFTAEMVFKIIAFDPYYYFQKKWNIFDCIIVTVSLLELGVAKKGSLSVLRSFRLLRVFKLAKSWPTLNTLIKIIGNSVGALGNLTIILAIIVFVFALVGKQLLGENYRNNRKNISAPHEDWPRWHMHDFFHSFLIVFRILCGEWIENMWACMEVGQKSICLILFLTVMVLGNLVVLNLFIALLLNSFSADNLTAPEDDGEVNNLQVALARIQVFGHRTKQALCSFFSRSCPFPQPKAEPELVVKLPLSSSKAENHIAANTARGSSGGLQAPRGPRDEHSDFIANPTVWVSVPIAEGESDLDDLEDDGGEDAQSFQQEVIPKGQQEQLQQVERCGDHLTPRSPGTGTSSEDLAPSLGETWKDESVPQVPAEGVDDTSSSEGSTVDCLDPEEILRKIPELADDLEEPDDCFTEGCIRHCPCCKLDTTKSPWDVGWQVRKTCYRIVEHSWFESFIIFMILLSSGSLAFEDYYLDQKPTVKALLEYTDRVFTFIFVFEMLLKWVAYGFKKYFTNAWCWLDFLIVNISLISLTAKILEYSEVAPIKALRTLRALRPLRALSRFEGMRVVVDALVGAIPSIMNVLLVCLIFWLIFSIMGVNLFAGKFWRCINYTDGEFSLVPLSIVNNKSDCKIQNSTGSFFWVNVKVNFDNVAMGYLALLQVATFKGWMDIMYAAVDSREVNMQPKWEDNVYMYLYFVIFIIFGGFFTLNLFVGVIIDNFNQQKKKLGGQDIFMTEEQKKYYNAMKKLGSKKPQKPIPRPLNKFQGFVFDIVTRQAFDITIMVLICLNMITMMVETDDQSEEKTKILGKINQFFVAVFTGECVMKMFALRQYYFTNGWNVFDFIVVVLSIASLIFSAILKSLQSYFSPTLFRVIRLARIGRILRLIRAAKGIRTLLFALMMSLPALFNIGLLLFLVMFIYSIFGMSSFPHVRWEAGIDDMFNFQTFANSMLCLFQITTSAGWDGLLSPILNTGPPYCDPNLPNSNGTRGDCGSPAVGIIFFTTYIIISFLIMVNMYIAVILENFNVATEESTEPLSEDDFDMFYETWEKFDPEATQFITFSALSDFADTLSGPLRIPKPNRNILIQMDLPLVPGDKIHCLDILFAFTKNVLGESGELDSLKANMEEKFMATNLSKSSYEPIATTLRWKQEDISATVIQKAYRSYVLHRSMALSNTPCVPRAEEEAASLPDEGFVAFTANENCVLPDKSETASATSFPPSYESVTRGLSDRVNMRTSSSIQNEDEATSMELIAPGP
# Kv7.2 = Kv7.2 (Homo sapiens, UniProt O43526); experiment: Rb+ efflux assay, Kv7.2; type: cell-based
# hTREK1∆N = target: T2, hTREK1∆N (Homo sapiens, UniProt O95069); experiment: Whole-cell patch clamp, transiently transfected tsA-201 cells, TREK1ΔN; type: cell-based; conditions: 1 μM, n = 5
# T2 construct: expressed in transfected cells; host or cells: tsA-201, transient, pcDNA3.1 vector
# Method: (§1) Recordings of hTREK1, hTREK1∆N, hTREK2, hTRAAK and […] currents from transiently transfected tsA‐201 cells were performed using methods as described in Veale and Mathie (2016). Briefly, the pcDNA3.1 vector was cloned with the gene of interest, and these vectors and a similar vector containing GFP were incorporated into the tsA201 cells (0.5 μg per well) using the calcium phosphate method. The cells were incubated for 6–12 h at 37°C in […] and 5% carbon dioxide. Cells were then washed using a PBS solution and used for experiments after 24 h.
# (§2) Currents were recorded using whole‐cell patch‐clamp using an Axopatch 1D amplifier. Cells were placed in a recording chamber filled with an external medium composed of 145 mM, NaCl, 2.5 mM KCl, 3 mM MgCl2, 1 mM CaCl2 and 10 mM HEPES (pH to 7.4, using NaOH). The internal medium used in the glass pipette comprised 150 mM KCl, 3 mM MgCl2, 5 mM (or 0.1 mM) EGTA and 10 mM HEPES (pH to 7.4, using KOH). GI‐530159 was applied by bath perfusion. Currents were recorded and analysed using pCLAMP 10.2 software Microsoft Excel. The voltage protocol used for recording current through K2P channels was as previously described (Veale and Mathie, 2016). For analysis, we measured the current difference between the −80 and −40 mV steps.
# hTRAAK = target: T3, hTRAAK (Homo sapiens, UniProt Q9NYG8); experiment: Whole-cell patch clamp, transiently transfected tsA-201 cells, TRAAK; type: cell-based
# T3 construct: expressed in transfected cells; host or cells: tsA-201, transient, pcDNA3.1 vector
# T3 sequence (Q9NYG8 1-393): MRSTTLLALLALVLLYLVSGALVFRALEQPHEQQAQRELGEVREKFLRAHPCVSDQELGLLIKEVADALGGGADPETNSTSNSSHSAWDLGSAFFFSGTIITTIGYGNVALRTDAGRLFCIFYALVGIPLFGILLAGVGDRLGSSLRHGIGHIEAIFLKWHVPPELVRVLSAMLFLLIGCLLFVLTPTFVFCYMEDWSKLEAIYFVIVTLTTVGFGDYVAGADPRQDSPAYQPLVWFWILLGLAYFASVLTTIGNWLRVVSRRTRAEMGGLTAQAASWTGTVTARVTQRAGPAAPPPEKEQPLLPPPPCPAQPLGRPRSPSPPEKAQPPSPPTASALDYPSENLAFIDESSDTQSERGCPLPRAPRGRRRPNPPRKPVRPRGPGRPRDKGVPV
# Method: as §1, §2
# [1] = tested on: Na current in DRG neurons; experiment: Voltage-clamp recordings from DRG neurons, Na current; type: cell-based, rat
# Method: Acutely dissociated rat DRG cells were obtained according to a previously described protocol (Passmore, 2005). All animal care and experimental procedures complied with guidelines and were approved by the Pfizer Neusentis Institutional Animal Use and Care Committee. Animal studies are reported in compliance with the ARRIVE guidelines (Kilkenny et al., 2010; McGrath and Lilley, 2015).Cells were plated on coated coverslips (poly‐D‐lysine/laminin, BD Biosciences, San Jose, CA, USA) prior to patching on the same day. Cells were perfused with an extracellular solution containing (in mM): 135 NaCl, 4.7 KCl, 1 CaCl2, 1 MgCl2, 10 HEPES and 10 glucose, pH 7.4, with NaOH (310 mOsmol·L^−1). Pipette solution contained (in mM): 130 KCl, 1 MgCl2, 5 MgATP, 10 HEPES and 5 EGTA, pH adjusted to 7.3 with KOH (290 mOsmol·L^−1). For whole‐cell recordings, currents were filtered at 2 kHz and sampled at 5 kHz. Series resistance was compensated for by up to 80%. For current‐clamp recordings, action potential firing and resting membrane potential (RMP) were recorded from small cells ([…]). GI‐530159 was dissolved in 0.3% DMSO as 10 mM stock and applied in the vicinity of cells using a gravity fed perfusion system (MSC‐200, Bio‐Logic SAS, Claix, France).
structure (smiles),measurement,setting,value
"Nc1ccc(Oc2ccc(C(c3ccc(Oc4ccc(N)cc4)cc3)(C(F)(F)F)C(F)(F)F)cc2)cc1 [GI‐530159, 4,4′‐(hexafluoroisopropylidene)bis(p‐phenyleneoxy)dianiline]",EC50,NaV1.7,> 100000 nM
same,activator effect on TASK2 (K2P5.1),TASK2 (K2P5.1),no activator effects
same,TREK1 current measured at 0 mV,"hTREK1; 1 μM, HEK293, 116 ± 15 pA in presence of DMSO, n = 6, P < 0.05",4090 ± 878 pA
same,"activated current, TREK1 channels","hTREK1; 1 μM, n = 6",4.0 ± 0.9 nA
same,reversal potential of compound-enhanced current,"hTREK1; 1 μM, voltage ramp −100 to +80 mV",~−80 mV
same,enhanced current at maximal activation,"hTREK1; 30 μM, measured at 0 mV, n = 5",6.6 ± 0.9 nA
same,EC50,"hTREK1; HEK293, 0.1 to 30 μM, measured at 0 mV, read-out: EC50 for TREK1 current enhancement",890 nM and 900 nM
same,EC50,NaV1.8,> 100000 nM
same,activator effect on Kv7.2,Kv7.2,no activator effects
same,enhancement of TREK1ΔN current,hTREK1∆N,377 ± 57%
same,enhancement of TRAAK current,"hTRAAK; 1 μM, tsA-201, n = 7",2 ± 10%
same,effect on TRAAK channels,hTRAAK; 10 μM,no detectable effect
same,block of Na current in DRG neurons,[1],not observed
